Laboratory results from patent US20120101099A1, “HISTONE DEACETYLASE INHIBITORS” (ANTHEM BIOSCIENCES PRIVATE LIMITED, priority 2009, published 2012).
Structures can show the parent of a compound that is named as a salt.

What was measured:
[1] = system: human HDAC (Hela cells nuclear extract); assay: HDAC activity screening, Hela nuclear extract, Boc-Lys(Ac)-AMC substrate; type: biochemical; details: Hela nuclear extract; for IC50: read-out: IC50 (50% HDAC inhibitory concentration), Table 2; for HDAC % Inhibition (1 μM): 1 μM compound; for HDAC % Inhibition (10 μM): 10 μM compound
Procedure: To study the human HDAC inhibition the in-house 96 well plate assay have been established using fluorescent substrate (Boc-Lys (Ac)-AMC Substrate). Hela cells nuclear extract have been used as enzyme source.
Assay was performed in 96-well black microplate and total volume of the assay was 100 μL. Hela nuclear extract was diluted HDAC assay buffer (final concentration of 3.0 μg/mL). Enzyme mixture was made of 10 μL of diluted enzyme and 30 μL of HDAC buffer. 40 μl of enzyme mixture followed by 10 μL of test compound (final concentration from 0.01 to 10 μM) or vehicle (control) was added to each well. The plate was pre-incubated at 37° C. for 10 minutes. The HDAC reaction was started by adding 50 μl of HDAC substrate Boc-Lys (Ac)-AMC (Anaspec, Inc Fremont, Calif., USA). The plate was incubated at 37° C. for 45 minutes. The reaction was stopped by adding 50 μL of Trypsin stop solution and plate further incubated at 37° C. for 15 minutes. Measuring the fluorescence at excitation wavelength of 360 nm and emission wavelength of 460 nm monitored the release of AMC. Buffer alone and substrate alone served as blank.

[2] = Oral bioavailability and pharmacokinetics studies; type: in vivo, male Balb/c mice
Procedure: The studies were performed to determine the oral bioavailability and pharmacokinetics of test compounds in male Balb/c mice. Study was performed after obtaining the Institutional Animal Ethics Committee (IAEC) permission. Mice aged 5 to 6 weeks weighing around 25 to 30 g were used for this study. The animals were fasted overnight with free access to water. Animals were administered test compounds by oral route at a 50 mg/kg body weight (formulation: 0.5% methylcellulose in water and 0.1% tween 80. Dose volume 10 ml/kg b.w.) or intravenous route at a dose 10 mg/kg b.w. […] (formulation: 0.9% saline. Dose volume 10 ml/kg b.w.) Blood samples were collected at various time points during the next 24 hours post dose. The blood samples were centrifuged at 3000 g for 5 minutes at 4° C. and the corresponding plasma samples were collected in clean pre-labeled tubes. Then, each sample was subjected to a suitable extraction method and analysed by LC-MS/MS (API 3200 LC-MS/MS system). Data was analyzed using WinNonlin version 5.2 (Pharsight).

PC-3 = assay: Cell proliferation assay (MTT); type: cell-based; details: Homo sapiens, PC-3; Table 1; MTT, 48 hours; read-out: Cell growth inhibition (GI50 in μM) PC-3
Procedure: (§1) Cells were seeded in a 96-well cell culture plates at a concentration of 10,000 cells per well and incubated at 37° C. in CO2 incubator.
(§2) Twenty-four hours later cells were treated with different concentrations (100, 10, 1, 0.1, and 0.01 μM) of compound dissolved in DMSO and incubated for 48 hours. For To measurement, 24 hours after seeding the cells, 20 μL of 3-(4.5-dimethyl-2- thiazolyl)-2,5-diphenyl-2H-tetrazolium (MTT) solution per well was added to the T0 plate and incubated for 3 hours at 37° C. in a CO2 incubator.
(§3) The plate containing cells and test compounds was treated similarly after 48 hours of incubation. After 3 hours of MTT addition, well contents were aspirated carefully followed by addition of 100 μL DMSO per well. Plates were agitated to ensure dissolution of the formazan crystals in DMSO and absorbance was read at 570 nm (A570). […] From the percentage growths a dose response curve was generated and GI50 values were interpolated from the growth curves.

HT-29 = assay: Cell proliferation assay (MTT); type: cell-based; details: Homo sapiens, HT-29; Table 1; MTT, 48 hours; read-out: Cell growth inhibition (GI50 in μM) HT-29
Procedure: as §1, §2, §3

NCI-H460 = assay: Cell proliferation assay (MTT); type: cell-based; details: Homo sapiens, Table 1, MTT, 48 hours, read-out: Cell growth inhibition (GI50 in μM) NCI H460
Procedure: as §1, §2, §3

PA-1 = assay: Cell proliferation assay (MTT); type: cell-based; details: Homo sapiens, Table 1, MTT, 48 hours, read-out: Cell growth inhibition (GI50 in μM) PA-1
Procedure: as §1, §2, §3

A549 = assay: Cell proliferation assay (MTT); type: cell-based; details: Homo sapiens, A549; Table 1; MTT, 48 hours; read-out: Cell growth inhibition (GI50 in μM) A549
Procedure: as §1, §2, §3

[3] = plasma, oral 50 mg/kg, male Balb/c mouse

Row | IC50 [1] [nM] | bioavailability ([2]; plasma, oral 50 mg/kg vs intravenous, male Balb/c mouse) [%] | AUC(0-t) [2, 3] [ng·h/mL] | Cmax [2, 3] [ng/mL] | Tmax [2, 3] [min] | half-life [2, 3] [h] | GI50 (PC-3) [µM] | GI50 (HT-29) [µM] | GI50 (A549) [µM] | times higher AUC ([2]; compared with SAHA, oral) [times] | times longer terminal half life ([2]; compared with SAHA, oral) [times] | SMILES | HDAC % Inhibition (1 μM) [1] [%] | HDAC % Inhibition (10 μM) [1] [%] | GI50 (NCI-H460) [µM] | GI50 (PA-1) [µM]
1 | 19.1 | 68 ± 6 | 3340 | 3360 | 4.8 | 2 | – | – | – | – | – | CCN(CC)Cc1ccc(-c2cn(Cc3ccc(C(=O)NO)cc3)nn2)c(F)c1 [Example 13, 4-[4-(4-Diethylaminomethyl-2-fluoro-phenyl)-[1,2,3]triazol-1-ylmethyl]-N-hydroxy-benzamide] | – | – | – | –
2 | – | – | – | – | – | – | 0.6 ± 0.6 | 0.5 ± 0.4 | – | – | – | O=C(/C=C/c1cccc(Cn2cc(-c3ccccc3)nn2)c1)NO [Example 22, (E)-N-Hydroxy-3-[3-(4-phenyl-[1,2, 3]triazol-1-ylmethyl)-phenyl]-acrylamide] | 92 | 96 | 0.1 ± 0.2 | 0.01
3 | – | – | – | – | – | – | 4.6 ± 1.6 | 2.4 ± 0.5 | – | – | – | O=C(NO)c1ccc(Cn2cc(-c3ccccc3F)nn2)cc1 [Example 4, 4-[4-(2-Fluoro-phenyl)-[1,2,3]triazol-1-ylmethyl]-N-hydroxy-benzamide] | 88 | 94 | 3.2 ± 1.1 | –
4 | – | – | – | – | – | – | 47.7 | 19.3 | – | – | – | O=C(/C=C/c1cccc(CNS(=O)(=O)Cn2cc(-c3ccccc3)nn2)c1)NO [Example 35, N-Hydroxy-3-{3-[(4-phenyl-[1,2,3]triazol-1-ylmethanesulfonylamino)-methyl]-phenyl}-acrylamide] | 67 | 92 | 20.4 | –
5 | – | – | – | – | – | – | 2.4 ± 2.5 | 0.9 ± 0.8 | – | – | – | CN(C)c1ccc(-c2cn(Cc3ccc(C(=O)NO)cc3)nn2)cc1 [Example 1] | 92 | 94 | 1 ± 0.2 | 0.01
6 | – | – | – | – | – | – | 23.3 | 23.8 | – | – | – | O=C(NO)c1ccc(CNS(=O)(=O)Cn2cc(-c3ccccc3)nn2)cc1 [Example 34] | 91 | 99 | 19.9 | –
7 | – | – | – | – | – | – | 3.4 ± 0.4 | 5.2 ± 3.5 | – | – | – | O=C(NO)c1ccc(Cn2cc(-c3ccc(F)cc3)nn2)cc1 [Example 3, 4-[4-(4-Fluoro-phenyl)-[1,2,3]triazol-1-ylmethyl]-N-hydroxy-benzamide] | 84 | 96 | 6.5 ± 4.2 | –
8 | 1 | – | – | – | – | – | 9.4 ± 6.2 | – | 0.9 ± 0.3 | – | – | O=C(/C=C/c1cccc(Cn2cc(-c3ccc(CN4CCCC4)cc3)nn2)c1)NO [Example 26, N-Hydroxy-3-{3-[4-(4-pyrrolidin-1-ylmethyl-phenyl)-[1,2,3]triazol-1-ylmethyl]-phenyl}-acrylamide hydrochloride] | 99 | 99 | – | 0.03
9 | 25 | – | – | – | – | – | 18.5 ± 10.2 | – | 3.2 ± 1.4 | – | – | CN(C)Cc1ccc(-c2cn(Cc3ccc(C(=O)NO)cc3)nn2)cc1 [Example 10, 4-[4-(4-Dimethylaminomethyl-phenyl)-[1,2,3]triazol-1-ylmethyl]-N-hydroxy-benzamide] | 96 | 100 | – | 0.1 ± 0.02
10 | 19 | – | – | – | – | – | 12.7 ± 5.6 | – | 2.9 ± 1.8 | – | – | O=C(/C=C/c1ccc(Cn2cc(-c3ccc(CN4CCOCC4)cc3)nn2)cc1)NO [Example 20] | 96 | 100 | – | 0.16 ± 0.02
11 | 18.6 | – | – | – | – | – | – | – | – | 9 | 2 | CCN(CC)CCc1ccc(-c2cn(Cc3ccc(C(=O)NO)cc3)nn2)cc1 [Example 11, 4-{4-[4-(2-Diethylamino-ethyl)-phenyl]-[1,2,3]triazol-1-ylmethyl}-N-hydroxy-benzamide] | – | – | – | –
12 | – | – | – | – | – | – | 2.6 ± 1.2 | 1.4 ± 0.5 | – | – | – | COc1ccc(-c2cn(Cc3ccc(C(=O)NO)cc3)nn2)cc1 [Example 7, N-Hydroxy-4-[4-(4-methoxy-phenyl)-[1,2,3]triazol-1-ylmethyl]-benzamide] | 90 | 94 | 3.1 ± 1.7 | –
13 | – | – | – | – | – | – | 4.4 | 0.38 ± 0.12 | – | – | – | CN(C)c1ccc(-c2cn(Cc3ccc(/C=C/C(=O)NO)cc3)nn2)cc1 [Example 17] | 93 | 99 | 7.06 ± 6.98 | –
14 | – | – | – | – | – | – | 1.7 ± 1.1 | 1.9 ± 1.8 | – | – | – | O=C(NO)c1ccc(Cn2cc(-c3ccccc3)nn2)cc1 [Example 2, N-Hydroxy-4-(4-phenyl-[1,2,3]triazol-1-ylmethyl)-benzamide] | 98 | 100 | 2.6 ± 2 | 0.11
15 | – | – | – | – | – | – | 9.2 ± 9.5 | 13.3 ± 2.9 | – | – | – | O=C(NO)c1ccc(Cn2cc(-c3cccnc3)nn2)cc1 [Example 5, N-Hydroxy-4-(4-pyridin-3-yl-[1,2,3]triazol-1-ylmethyl)-benzamide] | 68 | 88 | 19 ± 1 | –
16 | 1 | – | – | – | – | – | 4.5 ± 5.7 | – | 0.4 ± 0.2 | – | – | CN(C)Cc1ccc(-c2cn(Cc3cccc(/C=C/C(=O)NO)c3)nn2)cc1 [Example 27, 3-{3-[4-(4-Dimethylaminomethyl-phenyl)-[1,2,3]triazol-1-ylmethyl]-phenyl}-N-hydroxy-acrylamide hydrochloride] | 99 | 99 | – | 0.02
